Values after ≈ are worked out from the molar mass of the structure shown.

The test system of this assay is AGE production. The experiment in a line: Assay of inhibition effect on AGE production (BSA with fructose and glucose, fluorescence analysis). The note with it: 10 mg/ml BSA, 0.2 M fructose and glucose, 37° for 7 days; fluorescence Ex 360 nm/Em 465 nm; average ± standard deviation. The assay is classed as biochemical, bovine. Here is the method: After preparing 10 mg/ml bovine serum albumin (BSA) dissolved in 50 mM of phosphate buffer (pH 7.4), AGE production was induced by culturing the mixture of 0.2 M of fructose and glucose at 37 °C for 7 days. The compounds extracted from Morus Bark and prepared from Example 1 to 8 was handled in the concentration of 0.1 μg/Ml respectively. (All the compounds were dissolved in 100% of ethanol.) Pyridoxamine known for AGE inhibitor was used as a positive control group. AGE production was induced by using only fructose and glucose to BSA culturing at 37 °C for 7 days. It was handled in the concentration of 0.1 μg/Ml to 1000 μg/Ml.
After 7 days, the amount of AGE produced in culture medium was measured by using microplate reader (Excitation: 360 nm, Emission: 465 nm, fluorescence analysis).
The rate of inhibiting the production was counted by the following numerical formula. […] Also, the average and standard deviation of IC50 value were calculated from at least 3 independent experiments.
The rate of inhibiting the production (%)=100−(Fluorescence intensity of Experimental group−Fluorescence intensity of Reference)/(Fluorescence intensity of Control group−Fluorescence intensity of Control-Reference)×100
For the compound `CC1=C[C@H]2c3c(O)cc(-c4cc5ccc(O)cc5o4)cc3O[C@@]3(c4ccc(O)cc4O)Oc4cc(O)ccc4[C@H](C1)[C@@H]23` [Example. 1, Mulberrofuran G], it took 79.5 ± 19.4 µM to reach half-maximal inhibition (IC50) and the “IC50 value” is 44.7 ± 10.9 mg/L (≈ 79.5 µM).
Take `CC12CC(c3ccc(O)cc3O1)C13OC1(c1ccc(O)cc1O)Oc1cc(/C=C/c4ccc(O)cc4O)cc(O)c1C3C2=O` (centres unmarked) [Example. 4, Kuwanon Z]: the IC50 amounted to 46.1 ± 11.8 µM and the “IC50 value” stood at 27.4 ± 7.0 mg/L (≈ 46.1 µM).
For `Oc1cc(O)cc(/C=C/c2ccc(O)cc2O)c1` [Example. 5, Oxyresveratrol], in that order: 19.3 ± 4.1 µM and 4.7 ± 1.0 mg/L (≈ 19.2 µM).
For `O=C1CC(c2ccc(O)cc2O)Oc2cc(O)cc(O)c21` (centres unmarked) [Example. 6, 2′,4′,5,7-tetrahydroxyflavanone], in that order: 96.2 ± 10.1 µM and 27.7 ± 2.9 mg/L (≈ 96.1 µM).
Take `CC(C)(O)CCc1c(-c2ccc(O)cc2O)oc2cc3c(c(O)c2c1=O)C=CC(C)(C)O3` [Example. 7, Morusignin L]: 160 ± 16.7 µM corresponded to half-maximal inhibition (IC50) and the “IC50 value” came to 70.1 ± 7.3 mg/L (≈ 160 µM).
With `O=C1c2c(O)cc(O)cc2OC(c2ccc(O)cc2O)C1O` (centres unmarked) [Example. 8, Dihydromorin], the IC50 was 81.9 ± 3.3 µM and the “IC50 value” worked out at 24.9 ± 1.0 mg/L (≈ 81.8 µM).
`Cc1ncc(CO)c(CN)c1O` [Pyridoxamine, reference compound]: the IC50 was 747 ± 213 µM and the “IC50 value” came out at 125.7 ± 35.8 mg/L (≈ 747 µM).

In general, IC50 refers to the concentration at which inhibition is half-maximal. The low end stands for inhibition by little substance, the high end for a need for much substance.
